BindingDB's records for doi:10.1016/j.bmcl.2018.11.015 (Boehringer Ingelheim Pharmaceuticals, 2019)

Test: Antagonist activity at CCR1 in human THP1 cells assessed as inhibition of chemotaxis after 30 mins by Celltiter-glo reagent based luminescence assay
`Cc1c(C(=O)NCc2cccc(C(F)(F)F)c2)cnn1-c1ccc(Cl)c(Cl)c1` showed an IC50 of 1200 nM. Work on `CC(C)(O)c1ccc2c(c1)/C(=C\CCN1CC[C@](O)(c3ccc(Cl)cc3)C(C)(C)C1)c1cccnc1CO2` yielded an IC50 of 1.8 nM. With `COc1cc(N2CCN(C(=O)Cn3nc(-c4ncc[nH]4)c4cccnc43)CC2)ccc1Cl` the IC50 was 4 nM. With `CC(C)[C@@H](NC(=O)NCC(C)(C)O)C(=O)N1CC[C@](O)(c2ccc(Cl)cc2)C(C)(C)C1` the IC50 was 1.5 nM.
